Measured values taken from EPA's ToxValDB 9.5 (doi:10.2903/j.efsa.2017.4852).

Legend:
Chrysoperla externa = assay: LR50; higher = less toxic; details: not reported; mortality
Anas platyrhynchos = details: acute; oral; unspecified; mortality
Tagia sp. = details: chronic/long-term; reproduction
Oryctolagus sp. = details: developmental; development
Apis mellifera = details: acute, mortality
Bibionidae = details: chronic/long-term; duration: 28 days
Mus musculus = details: acute; oral; mortality
Folsomia candida = details: chronic/long-term; reproduction

CC#Cc1cc(C)nc(Nc2ccccc2)n1 [Mepanipyrim]
LR50 (Chrysoperla externa): > 500 g/ha | LD50 (Anas platyrhynchos): > 2250 mg/kg-day | NOEC (Tagia sp.): 113 mg/kg | NOAEL (Oryctolagus sp.): 10 mg/kg-day | LD50 (Apis mellifera; dermal): > 80 µg/piece | LD50 (Apis mellifera; oral, unspecified): > 50 µg/piece | NOEC (Bibionidae): 4.67 mg/kg | LD50 (Rattus norvegicus; acute, oral, mortality): > 2650 mg/kg-day | LOAEL (Rattus norvegicus; chronic, morphology): 2.45 mg/kg-day | LOAEL (Rattus norvegicus; reproduction developmental, histopathology: nonneoplastic): 2.45 mg/kg-day | LD50 (Mus musculus): > 2650 mg/kg-day | NOEC (Folsomia candida): 58.4 mg/kg | LD50 (Colinus virginianus; acute, oral, mortality): > 2250 mg/kg-day | NOEC (Colinus virginianus; reproduction developmental, reproduction): 100 mg/kg-day
